We go through 59 compounds from ChEMBL document CHEMBL4428102, “Discovery of an Orally Bioavailable Gonadotropin-Releasing Hormone Receptor Antagonist” (J Med Chem, 2016).

pIC50: −log10 of the molar value.

The target in the first assay is T1, Gonadotropin-releasing hormone receptor (Homo sapiens, UniProt P30968).
T1 sequence (P30968 whole entry): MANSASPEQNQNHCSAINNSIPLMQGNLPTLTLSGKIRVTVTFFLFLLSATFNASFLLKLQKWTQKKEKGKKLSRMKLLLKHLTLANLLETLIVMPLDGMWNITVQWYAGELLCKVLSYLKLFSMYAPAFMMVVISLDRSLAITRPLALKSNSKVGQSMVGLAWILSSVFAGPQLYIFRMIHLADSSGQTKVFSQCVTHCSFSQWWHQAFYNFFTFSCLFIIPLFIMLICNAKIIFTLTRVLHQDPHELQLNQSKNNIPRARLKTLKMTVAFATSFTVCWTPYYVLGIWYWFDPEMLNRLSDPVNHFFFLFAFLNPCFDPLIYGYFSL
Kind of assay: Displacement of [125I]D-Trp6-LHRH from human GnRH receptor expressed in CHO-K1 cell membranes incubated for 1 hr by competitive binding assay.
Usually pIC50 stands for the IC50 on a negative log10 scale, so that one unit is a factor of ten. `Cc1ccc(CN2CCN(c3c(C)n(Cc4c(F)cccc4C(F)(F)F)c(=O)n(C[C@H](N)c4ccccc4)c3=O)CC2)cn1` showed a pIC50 of 7.85.

Take `Cc1c(N2CCN(Cc3cocn3)CC2)c(=O)n(C[C@H](N)c2ccccc2)c(=O)n1Cc1c(F)cccc1C(F)(F)F`: the pIC50 is 8.15.

Turning to `COC(=O)c1ccccc1CN1CCN(c2c(C)n(Cc3c(F)cccc3C(F)(F)F)c(=O)n(C[C@H](N)c3ccccc3)c2=O)CC1`, the pIC50 is 7.61.

As to `Cc1c(N2CCN(Cc3ccon3)CC2)c(=O)n(C[C@H](N)c2ccccc2)c(=O)n1Cc1c(F)cccc1C(F)(F)F`, the negative logarithm of the IC50 (pIC50) was 7.85.

`Cc1c(N2CCN(Cc3ccc(C#N)cc3)CC2)c(=O)n(C[C@H](N)c2ccccc2)c(=O)n1Cc1c(F)cccc1C(F)(F)F` had a pIC50 of 8.94.

`Cc1c(N2CCN(Cc3ccc(Cl)o3)CC2)c(=O)n(C[C@H](N)c2ccccc2)c(=O)n1Cc1c(F)cccc1C(F)(F)F` showed a negative-log IC50 (pIC50) of 9.41.

For `Cc1c(N2CCN(Cc3cccs3)CC2)c(=O)n(C[C@H](N)c2ccccc2)c(=O)n1Cc1c(F)cccc1C(F)(F)F`, the pIC50 was 8.90.

`Cc1c(N2CCN(Cc3ccc(Cl)nc3)CC2)c(=O)n(C[C@H](N)c2ccccc2)c(=O)n1Cc1c(F)cccc1C(F)(F)F` showed a pIC50 of 8.42.

For `Cc1c(N2CCN(C(=O)OCc3ccccc3)CC2)c(=O)n(C[C@H](N)c2ccccc2)c(=O)n1Cc1c(F)cccc1F`, the pIC50 is less than 7.00.

Turning to `Cc1c(N2CCN[C@@H](Cc3ccccc3)C2)c(=O)n(C[C@H](N)c2ccccc2)c(=O)n1Cc1c(F)cccc1F`, the pIC50 was less than 7.00.

On to `Cc1c(N2CCN(CCc3ccccc3)CC2)c(=O)n(C[C@H](N)c2ccccc2)c(=O)n1Cc1c(F)cccc1F`, for which the pIC50 is less than 7.00.

`Cc1c(N2CCN(Cc3ccncc3)CC2)c(=O)n(C[C@H](N)c2ccccc2)c(=O)n1Cc1c(F)cccc1F`: the pIC50 was less than 7.00.

Compound `Cc1c(N2CCN(Cc3ccccc3C#N)CC2)c(=O)n(C[C@H](N)c2ccccc2)c(=O)n1Cc1c(F)cccc1F` showed a pIC50 of 8.17.

As for `COc1ccc(CN2CCN(c3c(C)n(Cc4c(F)cccc4F)c(=O)n(C[C@H](N)c4ccccc4)c3=O)CC2)cc1`, the pIC50 was less than 7.00.

Consider `Cc1c(N2CCN(c3ccccc3)CC2)c(=O)n(C[C@H](N)c2ccccc2)c(=O)n1Cc1c(F)cccc1F`, for which the pIC50 is less than 6.00.

Turning to `Cc1c(N2CCN(CC3COc4ccccc4O3)CC2)c(=O)n(C[C@H](N)c2ccccc2)c(=O)n1Cc1c(F)cccc1F` (some centres not stated), the pIC50 is less than 7.00.

`Cc1c(N2CCN(CC3CCCCC3)CC2)c(=O)n(C[C@H](N)c2ccccc2)c(=O)n1Cc1c(F)cccc1F` gave a pIC50 of less than 6.00.

`Cc1c(N2CCN(Cc3cccc(OC(F)(F)F)c3)CC2)c(=O)n(C[C@H](N)c2ccccc2)c(=O)n1Cc1c(F)cccc1F` gave a pIC50 of 8.82.

In turn, `Cc1c(N2CCN(Cc3ccc(C(F)(F)F)cc3)CC2)c(=O)n(C[C@H](N)c2ccccc2)c(=O)n1Cc1c(F)cccc1F` had a pIC50 of 7.18.

As to `Cc1c(N2CCN(Cc3cccc4cccnc34)CC2)c(=O)n(C[C@H](N)c2ccccc2)c(=O)n1Cc1c(F)cccc1C(F)(F)F`, the pIC50 is less than 7.00.

Take `Cc1ccccc1CN1CCN(c2c(C)n(Cc3c(F)cccc3F)c(=O)n(C[C@H](N)c3ccccc3)c2=O)CC1`: the pIC50 is 7.13.

As for `Cc1c(N2CCN(Cc3ccccc3F)CC2)c(=O)n(C[C@H](N)c2ccccc2)c(=O)n1Cc1c(F)cccc1F`, the negative-log IC50 (pIC50) was 8.39.

`Cc1c(N2CCC(C)CC2)c(=O)n(C[C@H](N)c2ccccc2)c(=O)n1Cc1c(F)cccc1F`: the negative-log IC50 (pIC50) is 7.12.

Turning to `Cc1c(N2CCN(Cc3ccc(Cl)cc3)CC2)c(=O)n(C[C@H](N)c2ccccc2)c(=O)n1Cc1c(F)cccc1F`, the pIC50 was 7.85.

With `Cc1c(N2CCC(Cc3ccccc3)CC2)c(=O)n(C[C@H](N)c2ccccc2)c(=O)n1Cc1c(F)cccc1F`, the pIC50 is 7.47.

For the compound `Cc1c(N2CCN(C(=O)c3ccccc3)CC2)c(=O)n(C[C@H](N)c2ccccc2)c(=O)n1Cc1c(F)cccc1F`, the pIC50 was less than 7.00.

The compound `Cc1c(N2CCCCC2)c(=O)n(C[C@H](N)c2ccccc2)c(=O)n1Cc1c(F)cccc1F` had a pIC50 of 6.89.

For `Cc1c(N2CCN(Cc3ccccc3)CC2)c(=O)n(C[C@H](N)c2ccccc2)c(=O)n1Cc1c(F)cccc1F`, the pIC50 is 7.92.

`Cc1c(N2CCN(Cc3ccc(O)cc3)CC2)c(=O)n(C[C@H](N)c2ccccc2)c(=O)n1Cc1c(F)cccc1F` gave a pIC50 of 7.45.

As to `Cc1c(N2CCc3ccccc3C2)c(=O)n(C[C@H](N)c2ccccc2)c(=O)n1Cc1c(F)cccc1F`, the pIC50 is less than 7.00.

The compound `Cc1c(N2CCN(Cc3ccccn3)CC2)c(=O)n(C[C@H](N)c2ccccc2)c(=O)n1Cc1c(F)cccc1F` gave a pIC50 of less than 7.00.

`Cc1c(N2CCN(S(=O)(=O)c3ccccc3)CC2)c(=O)n(C[C@H](N)c2ccccc2)c(=O)n1Cc1c(F)cccc1F` showed a pIC50 of less than 7.00.

As for `COc1cccc(CN2CCN(c3c(C)n(Cc4c(F)cccc4F)c(=O)n(C[C@H](N)c4ccccc4)c3=O)CC2)c1`, the pIC50 is 7.83.

`Cc1c(N2CCN(Cc3cccc(Cl)c3)CC2)c(=O)n(C[C@H](N)c2ccccc2)c(=O)n1Cc1c(F)cccc1F` had a pIC50 of 8.51.

The compound `Cc1c(N2CCN(Cc3ccccc3OC(F)(F)F)CC2)c(=O)n(C[C@H](N)c2ccccc2)c(=O)n1Cc1c(F)cccc1F` had a negative logarithm of the IC50 (pIC50) of less than 7.00.

Take `Cc1c(N2CCNC(c3ccccc3)C2)c(=O)n(C[C@H](N)c2ccccc2)c(=O)n1Cc1c(F)cccc1F` (some centres not stated): the pIC50 is less than 7.00.

Turning to `Cc1c(N2CCN(Cc3cccc(C(F)(F)F)c3)CC2)c(=O)n(C[C@H](N)c2ccccc2)c(=O)n1Cc1c(F)cccc1F`, the pIC50 is 9.04.

The next assay addresses T1, Gonadotropin-releasing hormone receptor. Kind of assay: Antagonist activity against human GnRH receptor expressed in HEK293 cells co-transfected with pGL4-NFAT promoter AP1-luc assessed as inhibition of 20 nM GnRH-induced NFAT activation pre-incubated for 1 hr before GnRH stimulation and measured after 6 hrs by luciferase reporter gene assay. Format: cell-based.
Consider `Cc1c(N2CCN(Cc3cccc4occc34)CC2)c(=O)n(C[C@H](N)c2ccccc2)c(=O)n1Cc1c(F)cccc1C(F)(F)F`, for which the pIC50 is less than 6.52.

In the case of `Cc1ccc(CN2CCN(c3c(C)n(Cc4c(F)cccc4C(F)(F)F)c(=O)n(C[C@H](N)c4ccccc4)c3=O)CC2)cn1`, the pIC50 is 5.77.

On to `Cc1c(N2CCN(Cc3ccc(C(F)(F)F)s3)CC2)c(=O)n(C[C@H](N)c2ccccc2)c(=O)n1Cc1c(F)cccc1C(F)(F)F`, for which the pIC50 was 7.21.

With `Cc1c(N2CCN(Cc3cocn3)CC2)c(=O)n(C[C@H](N)c2ccccc2)c(=O)n1Cc1c(F)cccc1C(F)(F)F`, the pIC50 was less than 6.00.

Take `Cc1c(N2CCN(Cc3cccc(=O)o3)CC2)c(=O)n(C[C@H](N)c2ccccc2)c(=O)n1Cc1c(F)cccc1C(F)(F)F`: the pIC50 is less than 6.52.

For the compound `COC(=O)c1ccccc1CN1CCN(c2c(C)n(Cc3c(F)cccc3C(F)(F)F)c(=O)n(C[C@H](N)c3ccccc3)c2=O)CC1`, the pIC50 is less than 5.00.

Consider `Cc1c(N2CCN(Cc3ccon3)CC2)c(=O)n(C[C@H](N)c2ccccc2)c(=O)n1Cc1c(F)cccc1C(F)(F)F`, for which the pIC50 was less than 6.00.

As to `Cc1c(N2CCN(Cc3ccc(C(F)(F)F)nc3)CC2)c(=O)n(C[C@H](N)c2ccccc2)c(=O)n1Cc1c(F)cccc1C(F)(F)F`, the pIC50 is less than 6.52.

Turning to `Cc1c(N2CCN(Cc3ccc(C#N)cc3)CC2)c(=O)n(C[C@H](N)c2ccccc2)c(=O)n1Cc1c(F)cccc1C(F)(F)F`, the pIC50 is 6.49.

As for `Cc1c(N2CCN(Cc3ccc(Cl)o3)CC2)c(=O)n(C[C@H](N)c2ccccc2)c(=O)n1Cc1c(F)cccc1C(F)(F)F`, the pIC50 is 6.75.

With `Cc1c(N2CCN(Cc3cccs3)CC2)c(=O)n(C[C@H](N)c2ccccc2)c(=O)n1Cc1c(F)cccc1C(F)(F)F`, the pIC50 was less than 6.00.

Regarding `Cc1c(N2CCN(Cc3cccc(F)c3C#N)CC2)c(=O)n(C[C@H](N)c2ccccc2)c(=O)n1Cc1c(F)cccc1C(F)(F)F`, the pIC50 was 6.97.

For `Cc1c(N2CCN(Cc3nnc(C(F)(F)F)o3)CC2)c(=O)n(C[C@H](N)c2ccccc2)c(=O)n1Cc1c(F)cccc1C(F)(F)F`, the pIC50 was less than 6.52.

Take `Cc1c(N2CCN(Cc3ccc(Cl)nc3)CC2)c(=O)n(C[C@H](N)c2ccccc2)c(=O)n1Cc1c(F)cccc1C(F)(F)F`: the pIC50 is 6.26.

In the case of `Cc1c(N2CCN(Cc3cccc(C(F)(F)F)n3)CC2)c(=O)n(C[C@H](N)c2ccccc2)c(=O)n1Cc1c(F)cccc1C(F)(F)F`, the pIC50 is 6.66.

For `Cc1ccc(CN2CCN(c3c(C)n(Cc4c(F)cccc4C(F)(F)F)c(=O)n(C[C@H](N)c4ccccc4)c3=O)CC2)o1`, the pIC50 is less than 6.52.

On to `Cc1c(N2CCN(Cc3cccc(-c4ncco4)c3)CC2)c(=O)n(C[C@H](N)c2ccccc2)c(=O)n1Cc1c(F)cccc1C(F)(F)F`, for which the pIC50 was 7.28.

Take `Cc1c(N2CCN(Cc3cc(C(F)(F)F)co3)CC2)c(=O)n(C[C@H](N)c2ccccc2)c(=O)n1Cc1c(F)cccc1C(F)(F)F`: the pIC50 was less than 6.52.

As to `Cc1c(N2CCN(Cc3ccncn3)CC2)c(=O)n(C[C@H](N)c2ccccc2)c(=O)n1Cc1c(F)cccc1C(F)(F)F`, the pIC50 was less than 6.52.

For the compound `Cc1c(N2CCN(Cc3cccc4cnoc34)CC2)c(=O)n(C[C@H](N)c2ccccc2)c(=O)n1Cc1c(F)cccc1C(F)(F)F`, the pIC50 was less than 6.52.

In the case of `CCNC(=O)c1cccc(CN2CCN(c3c(C)n(Cc4c(F)cccc4C(F)(F)F)c(=O)n(C[C@H](N)c4ccccc4)c3=O)CC2)c1`, the pIC50 was less than 6.52.

For the compound `Cc1c(N2CCN(Cc3ccnc(C(F)(F)F)c3)CC2)c(=O)n(C[C@H](N)c2ccccc2)c(=O)n1Cc1c(F)cccc1C(F)(F)F`, the pIC50 is 6.65.

Take `Cc1c(N2CCN(Cc3cccc([N+](=O)[O-])c3F)CC2)c(=O)n(C[C@H](N)c2ccccc2)c(=O)n1Cc1c(F)cccc1C(F)(F)F`: the pIC50 is 6.94.

Take `Cc1c(N2CCN(Cc3ccc(C(N)=O)o3)CC2)c(=O)n(C[C@H](N)c2ccccc2)c(=O)n1Cc1c(F)cccc1C(F)(F)F`: the pIC50 is less than 6.52.

For `Cc1c(N2CCN(Cc3ccc(C(C)(C)C)o3)CC2)c(=O)n(C[C@H](N)c2ccccc2)c(=O)n1Cc1c(F)cccc1C(F)(F)F`, the pIC50 is less than 6.52.

In the case of `Cc1c(N2CCN(Cc3cccc([S+](C)[O-])c3)CC2)c(=O)n(C[C@H](N)c2ccccc2)c(=O)n1Cc1c(F)cccc1C(F)(F)F` (some centres not stated), the pIC50 was 7.29.

For `CNC(=O)c1cccc(CN2CCN(c3c(C)n(Cc4c(F)cccc4C(F)(F)F)c(=O)n(C[C@H](N)c4ccccc4)c3=O)CC2)c1`, the negative logarithm of the IC50 (pIC50) is 6.77.

Regarding `Cc1c(N2CCN(Cc3cccc(C#N)c3F)CC2)c(=O)n(C[C@H](N)c2ccccc2)c(=O)n1Cc1c(F)cccc1C(F)(F)F`, the pIC50 was 7.21.

Turning to `Cc1c(N2CCN(Cc3cccnc3C(F)(F)F)CC2)c(=O)n(C[C@H](N)c2ccccc2)c(=O)n1Cc1c(F)cccc1C(F)(F)F`, the pIC50 was less than 6.52.

With `Cc1c(N2CCN(Cc3cccc(C(N)=O)c3F)CC2)c(=O)n(C[C@H](N)c2ccccc2)c(=O)n1Cc1c(F)cccc1C(F)(F)F`, the pIC50 is 7.38.
